Consider twelve compounds from article PMC5050210, “BdorOBP83a-2 Mediates Responses of the Oriental Fruit Fly to Semiochemicals” (Frontiers in Physiology, 2016).

The target in test [1] is T1, BdorOBP83a-2 (Bactrocera dorsalis, UniProt A0A0G2UEQ3).
T1 construct: gene OBP83a-2; mature protein without signal peptide
T1 sequence (A0A0G2UEQ3 24-148): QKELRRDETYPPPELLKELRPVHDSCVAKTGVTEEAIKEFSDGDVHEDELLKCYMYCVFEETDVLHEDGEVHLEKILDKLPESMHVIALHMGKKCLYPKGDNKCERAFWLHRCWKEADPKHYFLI
The test can be described thus: biochemical. The arrangement: Fluorescence competitive displacement of 1-NPN from recombinant OBP, 25 °C, pH 7.4; competitor 5-50 uM. Conditions: 1-NPN displacement, 2 uM protein, 2 uM 1-NPN. The method, then:
(§1) Fluorescence spectra were measured on an F-7000 FL Fluorescence Spectrophotometer (Hitachi) in a 10 mm light path quartz cuvette at 25°C. […] The emission spectra were recorded between 350 and 500 nm. […] All measurements were performed in triplicates and mean values and standard errors are calculated. […] To determine the roles of specific OBPs in recognition of attractants in B. dorsalis, recombinant proteins of selected antenna-abundant OBPs and CSPs were obtained using a prokaryotic expression system (Figure 5). Purified OBPs and CSPs were used to determine binding affinity of each protein via fluorescence competitive binding assays. Thirteen pure attractant compounds were tested against each recombinant protein. […] PCR fragments were digested with both EcoRI and XhoI enzymes and the released DNA fragments were cloned into a PET-32a vector (Invitrogen), which were used to transform BL21 (DE3) E. coli competent cells (Invitrogen). […] LB/ampicillin medium overnight at 37°C. Protein expression was induced with 1 mM IPTG for 3 h when the culture had reached an OD600-value of 0.7–0.9. Cells were then harvested by centrifugation and lysed by sonication. […] Renaturation of purified proteins were accomplished by gradient dilution at 4°C. His-tag was removed by digestion with recombinant enterokinase (Novagen) and the digested mixtures were passed through a HisTrap affinity column to remove any undigested protein. At each step during protein preparation and purification, protein extracts, and purified proteins were examined on 15% SDS-PAGE.

Test [2] addresses T2, BdorOBP83a-1 (Bactrocera dorsalis, UniProt A0A0G2UGI4).
T2 construct: gene OBP83a-1; mature protein without signal peptide
T2 sequence (A0A0G2UGI4 32-155): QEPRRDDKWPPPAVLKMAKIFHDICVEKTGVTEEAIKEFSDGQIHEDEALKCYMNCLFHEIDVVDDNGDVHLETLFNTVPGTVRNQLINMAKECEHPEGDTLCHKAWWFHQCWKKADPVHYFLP
The test can be described thus: biochemical. Details: Fluorescence competitive displacement of 1-NPN from recombinant OBP, 25 °C, pH 7.4; competitor 5-50 uM. Conditions: 1-NPN displacement, 2 uM protein, 2 uM 1-NPN, extrapolated. The method, then: as §1

In test [3] the target is T1, BdorOBP83a-2. The test can be described thus: biochemical. Details: Fluorescence competitive displacement of 1-NPN from recombinant OBP, 25 °C, pH 7.4; competitor 5-50 uM. The conditions noted are these: 1-NPN displacement, Kd from IC50. The method, then:
(§2) Fluorescence spectra were measured on an F-7000 FL Fluorescence Spectrophotometer (Hitachi) in a 10 mm light path quartz cuvette at 25°C. All were excited at 337 nm with emission and excitation slit of both 10 nm. The emission spectra were recorded between 350 and 500 nm. […] All measurements were performed in triplicates and mean values and standard errors are calculated. […] To determine the roles of specific OBPs in recognition of attractants in B. dorsalis, recombinant proteins of selected antenna-abundant OBPs and CSPs were obtained using a prokaryotic expression system (Figure 5). Purified OBPs and CSPs were used to determine binding affinity of each protein via fluorescence competitive binding assays. Thirteen pure attractant compounds were tested against each recombinant protein. […] Except for BdorCSP3 and BdorOBP84a-2, all remaining OBPs could bind to the tested compounds (Figure 6; Table S8). […] Alternatively they might be involved in functions other than odor detection. […] Overall, we observed lower binding affinity with our recombinant proteins and tested attractants. […] In other studies, much higher affinity has been reported. For example, competitive binding assays with a lepidopteran pheromone-binding protein can reach nearly 100% displacement (Hooper et al., [2009]; Gu et al., [2013]), and competitive binding assays with an aphid OBP (OBP7) can reach about 80% displacement with the alarm pheromone (E)-ss-farnesene (Sun et al., [2012]). The biological significance of the observed lower affinity with B. doralis OBPs here remains to be determined. It could be due to diverse binding mechanisms between different functional OBPs and the corresponding compounds. Alternatively, BdorOBP83a-2 may […] The sequences of BdorOBPs and BdorCSPs encoding mature proteins (without signal peptide) were amplified by PCR using specific primers carrying a restriction site EcoRI or XhoI (Table S2). PCR fragments were digested with both EcoRI and XhoI enzymes and the released DNA fragments were cloned into a PET-32a vector (Invitrogen), which were used to transform BL21 (DE3) E. coli competent cells (Invitrogen). A selected positive clone was grown overnight in 5 mL [compound left out] LB/ampicillin medium overnight at 37°C. Protein expression was induced with 1 mM IPTG for 3 h when the culture had reached an OD600-value of 0.7–0.9. Cells were then harvested by centrifugation and lysed by sonication. After sonication and centrifugation, most recombinant proteins were present in inclusion bodies. […] Renaturation of purified proteins were accomplished by gradient dilution at 4°C. His-tag was removed by digestion with recombinant enterokinase (Novagen) and the digested mixtures were passed through a HisTrap affinity column to remove any undigested protein. At each step during protein preparation and purification, protein extracts, and purified proteins were examined on 15% SDS-PAGE.

In test [4] the target is T2, BdorOBP83a-1. The test can be described thus: biochemical. Conditions: 1-NPN displacement, Kd from IC50, extrapolated. Details: Fluorescence competitive displacement of 1-NPN from recombinant OBP, 25 °C, pH 7.4; competitor 5-50 uM. The method, then:
as §2

Test [5] deals with T3, BdorOBP84a-1 (Bactrocera dorsalis, UniProt A0A0G2UGI7).
T3 construct: gene OBP84a-1; mature protein without signal peptide
T3 sequence (A0A0G2UGI7 25-167): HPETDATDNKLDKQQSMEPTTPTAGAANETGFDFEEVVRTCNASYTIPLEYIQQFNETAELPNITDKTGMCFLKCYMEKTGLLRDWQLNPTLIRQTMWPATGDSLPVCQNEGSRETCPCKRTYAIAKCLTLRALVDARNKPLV
The test can be described thus: biochemical. The arrangement: Fluorescence competitive displacement of 1-NPN from recombinant OBP, 25 °C, pH 7.4; competitor 5-50 uM. Conditions: 1-NPN displacement; for IC50: 2 uM protein, 2 uM 1-NPN, extrapolated; for Kd: Kd from IC50, extrapolated. The method, then: as §2

Test [6] addresses T4, BdorOBP56h (Bactrocera dorsalis, UniProt A0A0G2UMU0).
T4 construct: gene OBP56h; mature protein without signal peptide
T4 sequence (A0A0G2UMU0 20-136): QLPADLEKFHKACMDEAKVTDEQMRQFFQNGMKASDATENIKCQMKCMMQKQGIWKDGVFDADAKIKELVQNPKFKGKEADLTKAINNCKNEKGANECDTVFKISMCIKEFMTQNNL
The test can be described thus: biochemical. Details: Fluorescence competitive displacement of 1-NPN from recombinant OBP, 25 °C, pH 7.4; competitor 5-50 uM. The conditions noted are these: 1-NPN displacement; for IC50: 2 uM protein, 2 uM 1-NPN, extrapolated, read-out: BdorOBP56 / IC50; for Kd: Kd from IC50, extrapolated, read-out: BdorOBP56 / Kd. The method, then: as §2

Test [7] deals with T1, BdorOBP83a-2. The test can be described thus: 1-NPN fluorescence competition. The class given is binding. The conditions noted are these: 50 mM Tris-HCl pH 7.4, 25°C; 2 μM protein, 2 μM 1-NPN; competitive displacement.
Test [8] concerns the target T2, BdorOBP83a-1. The test can be described thus: 1-NPN fluorescence competition. Conditions: 50 mM Tris-HCl pH 7.4, 25°C; 2 μM protein, 2 μM 1-NPN; competitive displacement. The class given is binding.
Test [9] deals with T4, BdorOBP56h. The test can be described thus: 1-NPN fluorescence competition. The class given is binding. Conditions: 50 mM Tris-HCl pH 7.4, 25°C; 2 μM protein, 2 μM 1-NPN; competitive displacement. The method, then: 1-NPN fluorescence competition on BdorOBP56h | all remaining OBPs could bind to the tested compounds
The target of test [10] is T3, BdorOBP84a-1. The test can be described thus: 1-NPN fluorescence competition. The class given is binding. The conditions noted are these: 50 mM Tris-HCl pH 7.4, 25°C; 2 μM protein, 2 μM 1-NPN; competitive displacement. The text has this:
1-NPN fluorescence competition on BdorOBP84a-1 | all remaining OBPs could bind to the tested compounds

`c1ccc2scnc2c1` [Benzothiazole]: the IC50 at BdorOBP83a-2 [1], on BdorOBP83a-1 [2], on BdorOBP84a-1 [5] and on BdorOBP56h [6] was over 50 µM in each case. For the same compound, the Kd on BdorOBP83a-2 [3], at BdorOBP83a-1 [4], at BdorOBP84a-1 [5] and at BdorOBP56h [6] was over 50 µM throughout.

Regarding `CCOC(C)=O` [Ethyl acetate], the IC50 on BdorOBP83a-2 [1], at BdorOBP83a-1 [2] and at BdorOBP56h [6] was over 50 µM throughout. The Kd at BdorOBP83a-2 [3], on BdorOBP83a-1 [4] and at BdorOBP56h [6] was over 50 µM throughout.

Turning to `C/C=C(\C)C(=O)OCC` [Ethyl tiglate], the IC50 at BdorOBP83a-2 [1], at BdorOBP83a-1 [2] and at BdorOBP56h [6] was over 50 µM throughout. Further, the Kd at BdorOBP83a-2 [3], on BdorOBP83a-1 [4] and on BdorOBP56h [6] was over 50 µM each time.

For the compound `CCCC1CCCC(=O)O1` (stereo not drawn) [δ-octalactone], the IC50 on BdorOBP83a-2 [1] and at BdorOBP56h [6] was over 50 µM each time. Also, the Kd was 54.7 µM at BdorOBP83a-2 [7], 12700 µM on BdorOBP83a-1 [8] and over 50 µM at BdorOBP56h [6].

With `CCCCCC1CCC(=O)O1` (stereo not drawn) [γ-nonanoic lactone], the IC50 at BdorOBP83a-2 [1], at BdorOBP84a-1 [5] and at BdorOBP56h [6] was over 50 µM each time. For the same compound, the Kd at BdorOBP83a-2 [7] is 52.5 µM; on BdorOBP83a-1 [8], 85900 µM; on BdorOBP84a-1 [5] it was over 50 µM; at BdorOBP56h [6] it was over 50 µM.

`CCCCC1CCC(=O)O1` (stereo not drawn) [γ-octalactone]: the IC50 on BdorOBP83a-2 [1], on BdorOBP83a-1 [2], on BdorOBP84a-1 [5] and on BdorOBP56h [6] was over 50 µM each time. For the same compound, the Kd on BdorOBP84a-1 [5] and on BdorOBP56h [6] was over 50 µM each time.

Regarding `CCOC(=O)c1ccccc1` [Ethyl benzoate], the IC50 at BdorOBP83a-2 [1], on BdorOBP84a-1 [5] and at BdorOBP56h [6] was over 50 µM in each case. Moreover, the Kd at BdorOBP83a-2 [3], on BdorOBP84a-1 [5] and on BdorOBP56h [6] was over 50 µM throughout.

`C=CC(O)CCCCC` (stereo not drawn) [1-octen-3-ol]: the IC50 at BdorOBP83a-2 [1], on BdorOBP83a-1 [2], on BdorOBP84a-1 [5] and at BdorOBP56h [6] was over 50 µM throughout. Also, the Kd at BdorOBP83a-2 [3], on BdorOBP83a-1 [4], at BdorOBP84a-1 [5] and on BdorOBP56h [6] was over 50 µM throughout.

As for `CC1=CCC(=C(C)C)CC1` [Terpinolene], the IC50 at BdorOBP83a-2 [1], at BdorOBP83a-1 [2], on BdorOBP84a-1 [5] and on BdorOBP56h [6] was over 50 µM in each case. For the same compound, the Kd at BdorOBP83a-2 [3], on BdorOBP83a-1 [4], at BdorOBP84a-1 [5] and at BdorOBP56h [6] was over 50 µM in each case.

On to `CCCCCCCC1CCC(=O)O1` (stereo not drawn) [γ-undecalactone], for which, at BdorOBP84a-1 [5], the IC50 is over 50 µM and the Kd was over 50 µM.

Consider `C=CCc1ccc(OC)c(OC)c1` [methyl eugenol, 4-allyl-1,2-dimethoxybenzene], for which the results for the IC50 at BdorOBP83a-2 [1], on BdorOBP83a-1 [2] and on BdorOBP56h [6] were 50.8 µM, over 50 µM and over 50 µM, respectively. In addition, the Kd at BdorOBP56h [9] was 578 µM; at BdorOBP83a-2 [7] it was 34 µM; at BdorOBP84a-1 [10] it was 79700 µM; on BdorOBP83a-1 [8] it was 2530 µM.

On to `COc1cc(/C=C/CO)ccc1O` [E-coniferyl alcohol], for which the IC50 on BdorOBP83a-2 [1], at BdorOBP83a-1 [2] and at BdorOBP84a-1 [5] was over 50 µM in each case. In addition, the Kd at BdorOBP83a-2 [3], at BdorOBP83a-1 [4] and at BdorOBP84a-1 [5] was over 50 µM each time.
